From patent US20120214862A1, “MODULATION OF FACTOR 7 EXPRESSION” (ISIS Pharmaceuticals, Inc., priority 2009, published 2012)
In the oligonucleotide strings, read from the 5' end, every base follows the letter of its sugar. An asterisk marks phosphorothioate; unmarked linkages are phosphodiester. Other units and linkages are bracketed, terminal groups are in braces. A string of capitals states the bases alone. e = 2'-O-(2-methoxyethyl) (MOE); [5mC] = 5-methylcytosine; d = 2'-deoxy (DNA)

Legend:
Assay type in all cases: cell-based
human Factor 7 mRNA [1] = experiment: Antisense inhibition of human Factor 7 mRNA in HepB3 cells, lipofectin, 50 nM, real-time RT-PCR; conditions: HepB3 cells
How it was run: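 Seeding density was 4,000 cells per well. Following roughly 24 hours of oligonucleotide treatment, RNA was extracted and Factor 7 message quantified using the RTS 2927 primer probe set. Levels were corrected for RIBOGREEN® total RNA and expressed against untreated controls.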

human Factor 7 mRNA [2] = experiment: Dose-dependent antisense inhibition of human Factor 7 in HepB3 cells, transfection with electroporation
Experimental: (§1) The gapmers were also transfected via electroporation and their dose-dependent inhibition of human Factor 7 mRNA was measured. Cells were plated at a density of 20,000 cells per well and transfected via electroporation with 3.125 μM, 6.25 μM, 12.5 μM, 25 μM, 50 μM, and 100 μM concentrations of antisense oligonucleotide, as specified in Table 15. After a treatment period of approximately 16 hours, RNA was isolated from the cells and Factor 7 mRNA levels were measured by quantitative real-time PCR. Human Factor 7 primer probe set RTS 2927 was used to measure mRNA levels. Factor 7 mRNA levels were adjusted according to total RNA content, as measured by RIBOGREEN®. Results are presented as percent inhibition of Factor 7, relative to untreated control cells.
as §1, with “Cells were” for “The gapmers were also transfected via electroporation and their dose-dependent inhibition of human Factor 7 mRNA was measured. Cells were”, “in Table 16. After a” for “in Table 15. After a”, “cells and human Factor 7” for “cells and Factor 7”

human Factor 7 mRNA [3] = experiment: Dose-dependent antisense inhibition of human Factor 7 in HepB3 cells, transfection with lipofectin; conditions: lipofectin, HepB3 cells, 16 hours
Experimental: Cells were plated at a density of 4,000 cells per well and treated with lipofectin reagent with 3.125 nM, 6.25 nM, 12.5 nM, 25 nM, 50 nM, and 100 nM concentrations of antisense oligonucleotide, as indicated in Table 3. After a treatment period of approximately 16 hours, RNA was isolated from the cells and Factor 7 mRNA levels were measured by real-time RT-PCR, as described herein. Human Factor 7 primer probe set RTS 2927 (forward sequence: […], incorporated herein as SEQ ID NO: 164; reverse sequence: […], incorporated herein as SEQ ID NO: 165; probe sequence: TGGGTGGTCTCCGCGGCCX, incorporated herein as SEQ ID NO: 166) was used to measure mRNA levels. Factor 7 mRNA levels were adjusted according to total RNA content as measured by RIBOGREEN®. Results are presented as percent inhibition of Factor 7, relative to untreated control cells.
Cells were plated at a density of 4,000 cells per well and transfected using lipofectin reagent with 6.25 nM, 12.5 nM, 25.0 nM, 50.0 nM, and 100.0 nM concentrations of antisense oligonucleotide, as indicated in Table 7. After a treatment period of approximately 16 hours, RNA was isolated from the cells and Factor 7 mRNA levels were measured by real-time RT-PCR, as described herein. Human Factor 7 primer probe set RTS 2927 was used to measure mRNA levels. Factor 7 mRNA levels were adjusted according to total RNA content as measured by RIBOGREEN®. Results are presented as percent inhibition of Factor 7, relative to untreated control cells.
Cells were plated at a density of 4,000 cells per well and transfected using lipofectin reagent with 3.125 nM, 6.25 nM, 12.5 nM, 25 nM, 50 nM, and 100 nM concentrations of antisense oligonucleotide, as specified in Table 14. After a treatment period of approximately 16 hours, RNA was isolated from the cells and Factor 7 mRNA levels were measured by quantitative real-time PCR. Human Factor 7 primer probe set RTS 2927 was used to measure mRNA levels. Factor 7 mRNA levels were adjusted according to total RNA content, as measured by RIBOGREEN®. Results are presented as percent inhibition of Factor 7, relative to untreated control cells.

human Factor 7 mRNA [4] = experiment: Inhibition of human Factor 7 mRNA by 2-10-2 MOE shortmers in HepB3 cells, electroporation, 1,000 nM; conditions: electroporation, 1,000 nM oligonucleotide, approximately 24 hours, relative to untreated control cells
How it was run: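 14-mer 2-10-2 2′-MOE gapmers, full phosphorothioate, 5-methylcytidines, electroporated at 1,000 nM into HepB3 cells (20,000/well). After ~24 h, mRNA quantified by real-time RT-PCR, normalized to RIBOGREEN total RNA; percent inhibition relative to untreated cells.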

[5] = gapmers targeted to nucleobases 15188 to 15211 of SEQ ID NO: 1 (Table 13)
[6] = 3.125 μM, 16 hours (Example 7, Table 15)
[7] = 3.125 μM, 16 hours (Example 8, Table 16)
[8] = 6.25 μM, 16 hours (Example 7, Table 15)
[9] = 6.25 μM, 16 hours (Example 8, Table 16)
[10] = 12.5 μM, 16 hours (Example 7, Table 15)
[11] = 12.5 μM, 16 hours (Example 8, Table 16)
[12] = 25 μM, 16 hours (Example 7, Table 15)
[13] = 25 μM, 16 hours (Example 8, Table 16)
[14] = 50 μM, 16 hours (Example 7, Table 15)
[15] = 50 μM, 16 hours (Example 8, Table 16)
[16] = 100 μM, 16 hours (Example 7, Table 15)
[17] = 100 μM, 16 hours (Example 8, Table 16)

| Substance | percent inhibition of Factor 7 mRNA, relative to untreated control cells (human Factor 7 mRNA [2]; [6]) [%] | percent inhibition of Factor 7 mRNA, relative to untreated control cells (human Factor 7 mRNA [2]; [7]) [%] | percent inhibition of Factor 7 mRNA, relative to untreated control cells (human Factor 7 mRNA [2]; [8]) [%] | percent inhibition of Factor 7 mRNA, relative to untreated control cells (human Factor 7 mRNA [2]; [9]) [%] | percent inhibition of Factor 7 mRNA, relative to untreated control cells (human Factor 7 mRNA [2]; [10]) [%] | percent inhibition of Factor 7 mRNA, relative to untreated control cells (human Factor 7 mRNA [2]; [11]) [%] | percent inhibition of Factor 7 mRNA, relative to untreated control cells (human Factor 7 mRNA [2]; [12]) [%] | percent inhibition of Factor 7 mRNA, relative to untreated control cells (human Factor 7 mRNA [2]; [13]) [%] | percent inhibition of Factor 7 mRNA, relative to untreated control cells (human Factor 7 mRNA [2]; [14]) [%] | percent inhibition of Factor 7 mRNA, relative to untreated control cells (human Factor 7 mRNA [2]; [15]) [%] | percent inhibition of Factor 7 mRNA, relative to untreated control cells (human Factor 7 mRNA [2]; [16]) [%] | percent inhibition of Factor 7 mRNA, relative to untreated control cells (human Factor 7 mRNA [2]; [17]) [%] | percent inhibition of Factor 7 mRNA, relative to untreated control cells (human Factor 7 mRNA [3]; 3.125 nM) [%] | percent inhibition of Factor 7 mRNA, relative to untreated control cells (human Factor 7 mRNA [3]; 12.5 nM) [%] | percent inhibition of Factor 7 mRNA, relative to untreated control cells (human Factor 7 mRNA [3]; 25 nM) [%] | percent inhibition of Factor 7 mRNA, relative to untreated control cells (human Factor 7 mRNA [3]; 50 nM) [%] | percent inhibition of Factor 7 mRNA, relative to untreated control cells (human Factor 7 mRNA [3]; 100 nM) [%] | percent inhibition of Factor 7 mRNA, relative to untreated control cells (human Factor 7 mRNA [3]) [%] | % inhibition of human Factor 7 mRNA (human Factor 7 mRNA [4]) [%] | other results |
| --- | --- | --- | --- | --- | --- | --- | --- | --- | --- | --- | --- | --- | --- | --- | --- | --- | --- | --- | --- | --- |
| 422086 (antisense eT*eG*e[5mC]*eA*eT*dG*dG*dT*dG*dA*dT*dG*d[5mC]*dT*dT*e[5mC]*eT*eG*eA*eA) [compound 422086] | 20 | 25 | 34 | 48 | 44 | 74 | 63 | 82 | 75 | 86 | 84 | 90 | 8 | 46 | 65 | 83 | 90 | 26 |  | % Inhibition of human Factor 7 mRNA levels (human Factor 7 mRNA [1]; [5]): 81% |
| 422087 (antisense e[5mC]*eA*eT*eG*e[5mC]*dA*dT*dG*dG*dT*dG*dA*dT*dG*d[5mC]*eT*eT*e[5mC]*eT*eG) [compound 422087] | 22 | 19 | 26 | 38 | 48 | 66 | 57 | 75 | 72 | 80 | 80 | 87 | 14 | 51 | 73 | 83 | 90 | 24 |  | % Inhibition of human Factor 7 mRNA levels (human Factor 7 mRNA [1]; [5]): 83% |
| 422096 (antisense eA*eG*eA*e[5mC]*eA*dA*dT*dG*dG*dT*d[5mC]*dA*dG*dG*dG*e[5mC]*eT*eG*eG*eT) [compound 422096] | 26 |  | 30 |  | 46 |  | 50 |  | 62 |  | 85 |  | 17 | 43 | 60 | 68 | 82 | 23 |  | % Inhibition of human Factor 7 mRNA levels (human Factor 7 mRNA [1]; gapmers targeted to nucleobases 11830 to 11869 of SEQ ID NO: 1 (Table 9)): 76% |
| 422130 (antisense eG*e[5mC]*e[5mC]*eT*eG*dA*dG*dG*d[5mC]*d[5mC]*dA*dG*d[5mC]*dA*dG*eA*eT*e[5mC]*eA*e[5mC]) [compound 422130] | 28 | 14 | 29 | 24 | 59 | 61 | 61 | 68 | 73 | 82 | 86 | 88 | 4 | 34 | 59 | 77 | 85 | 15 |  | % Inhibition of human Factor 7 mRNA levels (human Factor 7 mRNA [1]; gapmers targeted to nucleobases 14707 to 14732 of SEQ ID NO: 1 (Table 11)): 79% |
| 422140 (antisense eG*eT*eT*e[5mC]*eT*dG*d[5mC]*dA*dG*dG*dA*dG*d[5mC]*dG*dG*e[5mC]*e[5mC]*eT*eA*eA) [compound 422140] | 29 |  | 34 |  | 51 |  | 64 |  | 69 |  | 77 |  | 18 | 49 | 64 | 74 | 74 | 35 |  | % Inhibition of human Factor 7 mRNA levels (human Factor 7 mRNA [1]; gapmers (5-10-5, 3-14-3, 2-13-5 MOE) targeted to nucleobases 4868 to 4899 of SEQ ID NO: 1): 74% |
| 435849 (antisense eT*eG*d[5mC]*d[5mC]*dG*dT*dA*dG*dT*dG*dG*d[5mC]*e[5mC]*eG) [compound 435849] |  |  |  |  |  |  |  |  |  |  |  |  |  |  |  |  |  |  | 31 |  |
| 435850 (antisense e[5mC]*eT*dT*dG*dG*d[5mC]*d[5mC]*dA*dG*dT*dG*dT*eG*eG) [compound 435850] |  |  |  |  |  |  |  |  |  |  |  |  |  |  |  |  |  |  | 15 |  |
| 435851 (antisense eA*e[5mC]*dA*dG*dG*d[5mC]*d[5mC]*dA*dG*dG*d[5mC]*dT*eG*eG) [compound 435851] |  |  |  |  |  |  |  |  |  |  |  |  |  |  |  |  |  |  | 0 |  |
